Results taken from article PMC8286348 (Biochemical and biophysical research communications, 2021).
Where two headings read alike, the source gives them in different places.

Experiments:
[1] = target: PR^S17; details: read-out: Ki for PR^S17; clinical inhibitors; cited from earlier work
[2] = target: PR^S17; assay: Kinetic inhibition; type: biochemical, HIV-1; details: read-out: Ki for PR^S17; FRET-substrate (BACHEM H-2992), 37°C, pH 5.6
[3] = test system: PR dimerization; details: relative to 1; cited from earlier work
[4] = compared to 1; cited from earlier work
[5] = target: HIV-1 protease (PR); details: cited from earlier work
[6] = test system: HIV-1; details: read-out: antiviral IC50; MTT assay; cited from earlier work

In the case of `CC(C)CN(C[C@@H](O)[C@H](Cc1ccccc1)NC(=O)O[C@H]1CCOC1)S(=O)(=O)c1ccc(N)cc1` [amprenavir], the Ki [1] is given as 11 nM.

For `CC(C)CN(C[C@@H](O)[C@H](Cc1cc(F)cc(F)c1)NC(=O)O[C@H]1C2COC3OCC1C3C2)S(=O)(=O)c1ccc2nc(NC3CC3)sc2c1` (stereo partly shown) [Compound 3, GRL-142], the Ki [2] is listed as 17 ± 1.3 nM, the “fold better inhibition of PR dimerization than 1” value [3] is listed as “around 1000 fold” and the “CNS penetration in vitro” value [4] is listed as “better CNS penetration in vitro compared to 1”.

In the case of GRL-4410 [Compound 2], the Ki [2] is given as 15.8 ± 4.8 nM, the Ki [5] is given as 0.0029 nM and the IC50 [6] is given as 2.4 nM.
